Reference: patent publication US8859768B2, “Heteroaryls and uses thereof” (Millennium Pharmaceuticals, Inc., priority 2010, dated 2014)

Each compound was assayed against T1, Human VPS34 (Homo sapiens, UniProt Q8NEB9) (assay: Human VPS34 Enzyme Assay (Adapta TR-FRET)). Settings: compound at 1.111 μM; read-out: Average VPS34 % INH @ 1.111 μM.
T1 construct: GST (N); host or cells: SF9 insect cells (baculovirus)
Assay type: biochemical

T1 sequence (Q8NEB9 whole entry): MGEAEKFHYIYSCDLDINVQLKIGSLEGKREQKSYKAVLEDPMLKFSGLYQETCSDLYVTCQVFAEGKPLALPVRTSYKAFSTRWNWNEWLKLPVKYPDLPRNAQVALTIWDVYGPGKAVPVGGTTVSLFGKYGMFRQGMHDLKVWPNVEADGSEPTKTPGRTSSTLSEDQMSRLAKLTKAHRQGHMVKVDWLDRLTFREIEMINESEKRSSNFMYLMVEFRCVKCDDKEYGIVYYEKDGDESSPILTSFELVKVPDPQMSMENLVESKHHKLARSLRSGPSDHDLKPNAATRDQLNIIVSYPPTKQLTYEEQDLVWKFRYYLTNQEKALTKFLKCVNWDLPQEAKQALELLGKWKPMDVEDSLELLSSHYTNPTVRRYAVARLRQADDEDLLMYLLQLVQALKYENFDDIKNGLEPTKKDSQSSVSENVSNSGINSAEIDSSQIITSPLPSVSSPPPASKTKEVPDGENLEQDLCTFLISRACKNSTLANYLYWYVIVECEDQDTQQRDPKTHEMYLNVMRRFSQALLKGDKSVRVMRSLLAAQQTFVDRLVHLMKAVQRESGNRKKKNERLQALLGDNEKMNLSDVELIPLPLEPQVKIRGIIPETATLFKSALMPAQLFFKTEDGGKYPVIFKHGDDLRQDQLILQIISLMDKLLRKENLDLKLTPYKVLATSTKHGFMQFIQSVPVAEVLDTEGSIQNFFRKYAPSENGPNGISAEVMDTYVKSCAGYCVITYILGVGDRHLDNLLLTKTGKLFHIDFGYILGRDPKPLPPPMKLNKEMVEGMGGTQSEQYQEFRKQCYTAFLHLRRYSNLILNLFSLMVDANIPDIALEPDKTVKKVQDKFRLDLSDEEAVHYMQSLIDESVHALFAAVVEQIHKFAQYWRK

| Structure (SMILES) | inhibition at 1.111 µM [%] |
| --- | --- |
| CC(=O)Nc1cc(-c2nc(N3CCCC(N(C)C)C3)c(-c3nnc[nH]3)o2)c(C)cn1 (stereo not shown) [Compound I-79, N-(4-{4-[3-(dimethylamino)piperidin-1-yl]-5-(4H-1,2,4-triazol-3-yl)-1,3-oxazol-2-yl}-5-methylpyridin-2-yl)acetamide] | 82 |
| CC(=O)Nc1cc(-c2nc(C(=O)NCCc3cn4ccccc4n3)c(-c3ccccc3Cl)o2)c(C)cn1 [Compound I-82, 2-(2-acetamido-5-methylpyridin-4-yl)-5-(2-chlorophenyl)-N-[2-(imidazo[1,2-a]pyridin-2-yl)ethyl]-1,3-oxazole-4-carboxamide] | 68 |
| CC(=O)Nc1cc(-c2cc(C(=O)NCCCN3CCCC3)c(-c3ccccc3Cl)o2)c(C)cn1 [Compound I-84, 5-(2-acetamido-5-methylpyridin-4-yl)-2-(2-chlorophenyl)-N-[3-(pyrrolidin-1-yl)propyl]-3-furamide] | 54 |
| Cc1cnc(NC(=O)C2CC2)cc1-c1nc(C(N)=O)c(-c2ccccc2Cl)o1 [Compound I-86, 5-(2-chlorophenyl)-2-{2-[(cyclopropylcarbonyl)amino]-5-methylpyridin-4-yl}-1,3-oxazole-4-carboxamide] | 117 |
| COCC(=O)Nc1cc(-c2nc(-c3nnc[nH]3)c(-c3ccccc3Cl)o2)ccn1 [Compound I-87, N-{4-[5-(2-chlorophenyl)-4-(4H-1,2,4-triazol-3-yl)-1,3-oxazol-2-yl]pyridin-2-yl}-2-methoxyacetamide] | 109 |

Other lines, results leading:

| inhibition at 1.111 µM [%] | Structure (SMILES) |
| --- | --- |
| 92 | CC(=O)Nc1cc(-c2cc(C(=O)NCCC(C)C)c(-c3ccccc3Cl)o2)c(C)cn1 [Compound I-80, 5-(2-acetamido-5-methylpyridin-4-yl)-2-(2-chlorophenyl)-N-(3-methylbutyl)-3-furamide] |
| 112 | CCNC(=O)c1cc(-c2cc(NC(C)=O)ncc2C)oc1-c1ccccc1Cl [Compound I-81, 5-(2-acetamido-5-methylpyridin-4-yl)-2-(2-chlorophenyl)-N-ethyl-3-furamide] |
| 130 | CC(=O)Nc1cc(-c2cc(C(N)=O)c(-c3ccccc3Cl)o2)c(C)cn1 [Compound I-83, 5-(2-acetamido-5-methylpyridin-4-yl)-2-(2-chlorophenyl)-3-furamide] |
| 56 | CC(=O)Nc1cc(-c2cc(C(=O)NCc3ccc(N(C)C)cc3)c(-c3ccccc3Cl)o2)c(C)cn1 [Compound I-85, 5-(2-acetamido-5-methylpyridin-4-yl)-2-(2-chlorophenyl)-N-[4-(dimethylamino)benzyl]-3-furamide] |
| 114 | CC(=O)Nc1cc(-c2cc(C(=O)NCc3ccco3)c(-c3ccccc3Cl)o2)c(C)cn1 [Compound I-88, 5-(2-acetamido-5-methylpyridin-4-yl)-2-(2-chlorophenyl)-N-(2-furylmethyl)-3-furamide] |
